Source: patent US4277479A, “Tetrazolylalkoxycarbostyril derivatives and pharmaceutical compositions containing them” (Otsuka Pharmaceutical Co., Ltd., priority 1978, dated 1981)

Key:
[1] = tested on: rabbit platelet (ADP-induced aggregation); assay: Platelet aggregation inhibitory effect, ADP-induced aggregation in rabbit platelet; type: cell-based; settings: Oryctolagus cuniculus; for inhibition at 100 µM: concentration of the test compound solution 10^-4 mole; for inhibition at 100 µM / inhibition at 10 µM: read-out: Inhibition effect on ADP-induced aggregation in rabbit platelet; for inhibition at 10 µM: concentration of the test compound solution 10^-5 mole; for inhibition at 1 µM: concentration of the test compound solution 10^-6 mole
Excerpt: (§1) The blood sample used for the test is a 1/9 (by volume) mixture of sodium citrate and whole blood collected from rabbit. Said sample is subjected to 10-minute centrifugal separation at 1,000 r.p.m. to obtain a platelet rich plasma (PRP). The thus obtained PRP is separated, and the remaining blood sample is further subjected to 15-minute centrifugal separation at 3,000 r.p.m. to obtain a platelet poor plasma (PPP).
(§2) The number of platelets in the PRP is counted by the Brecher-Clonkite Method, and the PRP is diluted with the PPP to prepare a PRP sample with platelet concentration of 300,000/mm^3 for the adenosine diphosphate (ADP)-induced aggregation test. There is also prepared a PRP sample with platelet concentration of 450,000/mm^3 for the collagen-induced aggregation test.
(§3) 0.6 Ml of said PRP sample is added into 0.01 ml of a solution of a test compound of a predetermined concentration and the mixture is placed in a 37° C. thermostat for one minute. Then 0.07 ml of an ADP or collagen solution is added to the mixture. Transmittance of this mixture is determined and the change of transmittance is recorded by using the aggregometer at stirrer speed of 1,100 r.p.m. […] ADP is adjusted to a concentration of 7.5×10^-5 M, and the collagen solution is prepared by triturating 100 mg of collagen with 5 ml of said buffer and the supernatant is used as collagen inducer. Adenosine and acetylsalicylic acid are used as controls for the ADP-induced aggregation test and the collagen-induced aggregation test, respectively. The platelet aggregation inhibitory effect is measured in terms of percent inhibition with respect to the aggregation rate of the controls. The aggregation rate is calculated from the following formula: [formula] wherein a: transmittance of PRP
(§4) b: transmittance of PRP containing a test compound and an aggregation inducer
(§5) The compounds tested are as follows.

[2] = tested on: cerebral blood flow, bastard dog; assay: Increasing effect of cerebral blood flow in anesthetized dog; type: in vivo; settings: Canis lupus familiaris, iv, through profunda femoris vein, dog; for change in vivo at 0.3 mg/kg: dosage 300 μg/kg
Experimental: (Test of increasing effect of cerebral blood flow)
Thus, a bastard dog (male, 12-20 kg of body weight) was fixed in a prone (position) and was anesthetized with […] of pentobarbital sodium and forced to breathe at a frequency of respiration of 20 times/minute. Then, the skull was bared and the surface bone was removed to expose the venous sinus by using a grinder and the venous blood was taken out from the venas which was cannulizated. The amount of venous blood flow was measured by using an electromagnetic blood flow meter and next measured by using drop-counter to measure the number of drops of blood per 10 seconds.
The increasing effect of cerebral blood flow was calculated by comparing the number of blood drops in 30 seconds at the peak of increasement shown before and after the administration of compound to be tested. Each of the compounds to be tested was dissolved in dimethylformamide and diluted with physiological saline solution and administered through a cannule being inserted into the profunda femoris vein.

[3] = tested on: Deoxycorticosteroneacetate (DOCA)/saline hypertension rats (DHR); assay: Hypo-tensive effect, Deoxycorticosteroneacetate (DOCA)/saline hypertension rats (DHR), tail-cuff method; type: in vivo, rat; settings: 30 mg/kg oral, mean ± standard deviation
Experimental: Hypo-tensive effect of the compounds was measured by determining the maximum blood pressure of the test animals according to a procedure of Tail-cuff method.
The following types of test animals were used:
(2) Deoxycorticosteroneacetate (DOCA)/saline hypertension rats (DHR)
Wistar strain male rats having 150-170 g of body weight were anesthetized with ether and the left-side kidney was enucleated. One(1) week after the operation, 10 mg/kg of DOCA was injected subcutaneously once a week and 1% NaCl aqueous solution was given as drinking water. Five(5) weeks after the operation, rats having the maximum blood pressure over 150 mmHg were selected and used as test animals after having been denied food overnight.
Each of compounds to be tested was administered orally and the blood pressure of the rats was measured before the administration and 1, 2, 4, 6 and 8 hours after the administration. The blood pressure was measured by using Recorder (Rectihoriz type 8S, San-ei Instrument) and Electrosthygmomanometer PE-300 (Macro Bio-systems, Houston, Tex.).

[4] = tested on: rabbit platelet (collagen-induced aggregation); assay: Platelet aggregation inhibitory effect, collagen-induced aggregation in rabbit platelet; type: cell-based; settings: Oryctolagus cuniculus, read-out: Inhibition effect on collagen-induced aggregation in rabbit platelet; for inhibition at 100 µM: concentration of the test compound solution 10^-4 mole; for inhibition at 10 µM: concentration of the test compound solution 10^-5 mole; for inhibition at 1 µM: concentration of the test compound solution 10^-6 mole
Excerpt: as §1, §2, §3, §4, §5

SMILES: O=c1ccc2cc(OCCCCc3nnnn3C3CCCCC3)ccc2[nH]1 [Compound 7, 6-[4-(1-Cyclohexyltetrazol-5-yl)butoxy]carbostyril]
- inhibition at 100 µM [1]: 100%
- inhibition at 10 µM [1]: 59.9%
- inhibition at 1 µM [1]: 28.7%
- change in vivo at 0.3 mg/kg [2]: 68.4%
- Maximum blood pressure, difference after the administration ([3]; 1 hour): -8.4 ± 10.3 mmHg
- Maximum blood pressure, difference after the administration ([3]; 2 hours): -11.5 ± 8.5 mmHg
- Maximum blood pressure, difference after the administration ([3]; 4 hours): -14.8 ± 7.7 mmHg
- Maximum blood pressure, difference after the administration ([3]; 6 hours): -20.2 ± 14.0 mmHg
- Maximum blood pressure, difference after the administration ([3]; 8 hours): -21.3 ± 19.1 mmHg
- inhibition at 100 µM [4]: 100%
- inhibition at 10 µM [4]: 100%
- inhibition at 1 µM [4]: 26.8%

SMILES: O=c1ccc2cc(OCCCc3nnnn3CC3CCCCC3)ccc2[nH]1 [Compound 5, 6-[3-(1-Cyclohexylmethyltetrazol-5-yl)propoxy]carbostyril]
- inhibition at 100 µM [1]: 100%
- inhibition at 10 µM [1]: 64.1%
- inhibition at 1 µM [1]: 34.2%
- change in vivo at 0.3 mg/kg [2]: 71%
- Maximum blood pressure, difference after the administration ([3]; 1 hour): -10.7 ± 10.6 mmHg
- Maximum blood pressure, difference after the administration ([3]; 2 hours): -15.2 ± 11.2 mmHg
- Maximum blood pressure, difference after the administration ([3]; 4 hours): -12.5 ± 15.3 mmHg
- Maximum blood pressure, difference after the administration ([3]; 6 hours): -18.1 ± 9.6 mmHg
- inhibition at 100 µM [4]: 100%
- inhibition at 10 µM [4]: 100%
- inhibition at 1 µM [4]: 24.7%

SMILES: O=c1ccc2cc(OCCCc3nnnn3C3CCCCC3)ccc2[nH]1 [Compound 1, 6-[3-(1-Cyclohexyltetrazol-5-yl)propoxy]carbostyril]
- inhibition at 100 µM [1]: 100%
- inhibition at 10 µM [1]: 63.4%
- inhibition at 1 µM [1]: 32.7%
- change in vivo at 0.03 mg/kg ([2]; dosage 30 μg/kg): 36.9%
- change in vivo at 0.3 mg/kg [2]: 72.2%
- Maximum blood pressure, difference after the administration ([3]; 1 hour): -10.1 ± 3.7 mmHg
- Maximum blood pressure, difference after the administration ([3]; 2 hours): -10.0 ± 3.7 mmHg
- Maximum blood pressure, difference after the administration ([3]; 4 hours): -17.4 ± 5.2 mmHg
- Maximum blood pressure, difference after the administration ([3]; 6 hours): -25.4 ± 10.5 mmHg
- Maximum blood pressure, difference after the administration ([3]; 8 hours): -34.6 ± 13.5 mmHg
- inhibition at 100 µM [4]: 100%
- inhibition at 10 µM [4]: 100%
- inhibition at 1 µM [4]: 25.9%

SMILES: O=c1ccc2cc(OCCCc3nnnn3C3CCCCCCC3)ccc2[nH]1 [Compound 6, 6-[3-(1-Cyclooctyltetrazol-5-yl)propoxy]carbostyril]
- inhibition at 100 µM [1]: 100%
- inhibition at 10 µM [1]: 75.5%
- inhibition at 1 µM [1]: 30.5%
- change in vivo at 0.3 mg/kg [2]: 75.3%
- Maximum blood pressure, difference after the administration ([3]; 1 hour): -9.2 ± 4.8 mmHg
- Maximum blood pressure, difference after the administration ([3]; 2 hours): -12.0 ± 5.6 mmHg
- Maximum blood pressure, difference after the administration ([3]; 4 hours): -18.5 ± 6.1 mmHg
- Maximum blood pressure, difference after the administration ([3]; 6 hours): -30.3 ± 10.8 mmHg
- Maximum blood pressure, difference after the administration ([3]; 8 hours): -26.8 ± 10.6 mmHg
- inhibition at 100 µM [4]: 100%
- inhibition at 10 µM [4]: 100%
- inhibition at 1 µM [4]: 27.4%
